According to patent US5336485A, “Method for protecting animals against tacrine induced cytotoxic injury using sterol compounds” (priority 1993, dated 1994):
Where a name gives a salt, the structure may show the parent alone.

Experiments:
[1] = test system: L1210 leukemia cells; assay: Doxorubicin in L1210 leukemia bearing CDF1 mice; assay type: in vivo, mouse; details: DOX 10 mg/kg
Procedure: (§1) The experiments were conducted in accordance with NCI Protocol 1,100. FIGS. 8a-d show the experimental results obtained when male CDF1 mice (n=6) received either vehicle only or 100mg/kg body weight i.p. dose of either alpha-TS or cholesteryl succinate 20 hours prior to DOX administration. FIGS. 8a-d respectively show the results obtained when the mice received 10, 15, 20, and 25 mg DOX/kg body weight. […] FIGS. 9a-d show the experimental results obtained when male CDF1 mice ([…]) were injected (i.p.) with 10^6 murine L1210 leukemia cells followed immediately by an injection of alpha-TS tris salt (100 mg/kg, i.p.) or saline injection (vehicle), and twenty hours later (Day=0) each mouse in three of the groups was i.p. injected with 15, 20, or 25 mg DOX/kg body weight ([…]). Survival was monitored for twenty days.

[2] = test system: rat hepatocytes; assay: EMS-induced cytotoxicity (LDH leakage/cell death) in rat hepatocyte suspensions; details: for inhibition at 25 µM: Rattus norvegicus, Hepatocyte; for Cell Death: 50 mM EMS, 5 Hrs, alpha-TS 25, methyl ester 50, cholesteryl succinate 100, monomethyl/dimethyl succinate 250 μM
Procedure: To determine if alpha-TS is a cytoprotective agent under physiological conditions, liver cells were incubated with Waymouth's medium containing approximately 1 mM extracellular Ca^2+ in the presence and absence of alpha-TS.
(§2) At each time-point, rapid separation of viable from non-viable hepatocytes and medium was accomplished by the dibutyl phthalate centrifugation method. Cell viability was monitored hourly by measuring LDH leakage with a Cobas Analyzer and intracellular [K^+ ]with a flame photometer. LDH was routinely measured in the medium while intracellular K^+ was measured in the 10% perchloric acid lysate of viable cells. Lipid peroxidation was determined by measuring TBA reactants in the medium. […] The samples were diluted with 0.3 ml 1% ascorbate in 0.1 M SDS, 0.4 ml ethanol, sonicated and extracted once with 0.8 ml hexane. Next, the hexane extract was evaporated to dryness with N2, the residue dissolved in 2.5% ascorbate in methanol (1 ml) and analyzed (100 μl) by high-performance liquid chromatograph (HPLC). […] The mobile phase, 95% MeOH was run isocratically and the HPLC retention times for delta and alpha-tocopherol were approximately eleven and sixteen minutes, respectively. […] Following the addition of 0.2 ml 4 M HC1, the neutralized KOH-MeOH extracted with 0.8 ml hexane. […] A standard curve for each tocopherol congener was run with every assay. […] Only viable cells were monitored in the laboratory procedures.
To determine the relative cytoprotective potency of various tocopherol derivatives, the effect of varying doses of a tocopherol analog on the protection against EMS-induced toxicity was examined in vitro on rat hepatocyte suspensions. Specifically, the following ionizable tocopherol congeners were tested: alpha-TS, alpha tocopheryl glutarate (alpha-TG), and alpha tocopheryl phosphate (alpha-TP). […] 0.1 nmoles is the lower detection limit.
In vitro experiments were conducted with a variety of different tocopherol and succinate analogs to determine which were protective against EMS induced toxicity. After five hours of incubation with 50 mM EMS and 25μM of a tocopherol or succinate analog, cytoprotection was determined by comparing the percentage of LDH leakage from control hepatocytes (vehicle only, assumed 100% protection) with the EMS only treated cells (assumed 0% protection).
An in vitro experiment with rat hepatocyte suspensions was performed to determine the effect of esterase inhibitors on alpha-TS.
(§3) Rat hepatocyte suspensions were subjected to 50 mM EMS and the percentage of cell death, the percentage of intracellular K^+ (a metabolic parameter as discussed above), the depletion of ATP and the effect on lipid peroxidation were monitored.

[3] = test system: rat hepatocytes; assay: EMS-induced lipid peroxidation in rat hepatocyte suspensions; assay type: cell-based; details: 50 mM EMS
Procedure: as §2, §3

[4] = test system: rat hepatocytes; assay: Cellular alpha-tocopherol and tocopherol ester content of rat hepatocytes; details: 25 μM, Table 2
Procedure: as §2
The hepatocytes were subsequently exposed to 50mM EMS for three hours.

[5] = test system: male Sprague-Dawley rats; assay: CCl4 induced lethality in rats; assay type: in vivo, rat
[6] = test system: liver; assay: CCl4 induced hepatotoxicity in rats (serum AST/ALT); assay type: in vivo, rat; details: for Serum AST Levels: listed as Cholesteryl Succinate free acid
In short: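 Male Sprague-Dawley rats received test compounds i.p. at 100 mg/kg 20–24 h before oral CCl4 (2.9 g/kg or 1 g/kg). Serum AST and ALT were measured 48 h after CCl4 challenge.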

[7] = Tissue distribution of alpha-tocopherol and alpha-tocopherol ester in rats; assay type: in vivo, rat; details: 100 mg/kg ip, 24 h
Procedure: 100 mg/kg body weight of a tocopherol analog was administered to Sprague-Dawley rats using a peanut oil:ethanol vehicle (3:2). Twenty four hours later the rats were sacrificed and the accumulation of the tocopherol analog in the liver was determined.
A similar in vivo experiment to that discussed in conjunction with Table 5 was performed to determine if other tissues accumulate alpha-TS. Male Sprague-Dawley rats were given a 100 mg/kg dose of alpha-TS using a variety of chemical forms and vehicles. A variety of techniques were used to administer the alpha-TS. Twenty four hours later the rats were sacrificed and the tissues were tested for alpha-TS accumulation.

[8] = test system: variety of cell types; details: cited from earlier work
[9] = test system: CDF1 mice; assay: Doxorubicin lethality in CDF1 mice (normal tissue); assay type: in vivo, mouse; details: 100 mg/kg ip 20 h prior, DOX 10, 15, 20, 25 mg/kg
Procedure: as §1

[10] = test system: liver; assay: THA-induced hepatotoxicity in rats (serum AST); assay type: in vivo, rat; details: 100 mg/kg ip
Procedure: FIGS. 10 and 11 show the results of in vivo experiments where male Sprague-Dawley rats were given an oral dose of 15 or 30 mg THA/kg body weight, respectively. […] The serum AST levels were determined with respect to time after the THA challenge.

[11] = test system: rat hepatocytes; assay: Intracellular K+ of rat hepatocytes exposed to EMS; assay type: cell-based; details: 50 mM EMS, 5 Hrs; concentrations as cell death (Table 15)
From the text: Medzhradsky, Biochem. Med. 13:164 (1975), has noted that the cell's ability to maintain its intracellular concentration of potassium (K^+) is an excellent indicator of the metabolic integrity of the cell. A concentration gradient exists for K^+ with greater concentrations found intracellularly. To maintain this gradient, the cell is dependent on the action of the Na^+ -K^+ ATPase pump and an adequate supply of ATP. As cellular ATP levels decline, the ATPase pump is unable to maintain the gradient resulting in the loss of intracellular K^+ by equilibration with the extracellular space. Because the maintenance of cellular metabolic processes is essential to the continual repair and survival of cells, organ systems, and organisms, the effect of alpha-TS on the metabolic integrity of rat liver cells during a toxic insult was investigated by measuring intracellular K^+ levels. […] At each time-point, rapid separation of viable from non-viable hepatocytes and medium was accomplished by the dibutyl phthalate centrifugation method. Cell viability was monitored hourly by measuring LDH leakage with a Cobas Analyzer and intracellular [K^+ ]with a flame photometer. […] Lipid peroxidation was determined by measuring TBA reactants in the medium. […] Alltech, Avondale, Pa.). […] Following the addition of 0.2 ml 4 M HC1, the neutralized KOH-MeOH extracted with 0.8 ml hexane. […] A standard curve for each tocopherol congener was run with every assay. […] Only viable cells were monitored in the laboratory procedures.

[12] = test system: liver; assay: Acetaminophen-induced hepatotoxicity in rats (AST/ALT); assay type: in vivo, rat
Procedure: In vivo experiments were performed to determine if alpha-TS administration protects the liver from the hepatotoxic effects of acetaminophen. Acetaminophen is a commonly used analgesic that is metabolized to a reactive intermediate. […] The other group of male Sprague-Dawley rats received only the acetaminophen challenge. Forty eight hours after the challenge the rats were sacrificed and the levels of aspartate aminotransferase (AST) and alanine aminotransferase (ALT) were measured.
FIGS. 10 and 11 show the results of in vivo experiments where male Sprague-Dawley rats were given an oral dose of 15 or 30 mg THA/kg body weight, respectively. In the experiments, one group of rats was provided with an i.p. dose of 100 mg cholesteryl succinate tris salt/kg body weight 20 hours prior to the THA challenge, another group of rats only received the THA challenge, and the last group of rats acted as a control and were not challenged. The serum AST levels were determined with respect to time after the THA challenge.

[13] = test system: L1210 murine leukemia cells; assay: Inhibition of L1210 leukemia cell growth in vitro; assay type: cell-based, mouse
Procedure: Similar in vitro experiments were conducted with cholesteryl succinate tris salt and alpha-TS tris salt.

[14] = test system: gluconeogenesis or ATP production; details: cited from earlier work
[15] = test system: L1210 leukemia cells; details: 100 mg/kg ip
[16] = rat plasma, 100 mg/kg ip 24 h prior, 48 h after […] CCl4
[17] = 100 mg/kg, single dose 24 h prior, CCl4 […]
[18] = 100 mg/kg ip 20 h prior, 48 h after 1 g/kg CCl4 (Table 20)
[19] = 100 mg/kg ip, 48 h after 1 g/kg CCl4 (Table 33)
[20] = 100 mg/kg ip, no CCl4 (Table 20)
[21] = 100 mg/kg ip, no CCl4 (Table 33)
[22] = 100 mg/kg ip 20 hrs prior, 48 h after 2 g/kg AP (Table 23)
[23] = 100 mg/kg ip 20 h prior, 48 h after 1 g/kg CCl4 (Table 27)

COc1cccc2c1C(=O)c1c(O)c3c(c(O)c1C2=O)C[C@@](O)(C(=O)CO)C[C@@H]3O[C@H]1C[C@H](N)[C@H](O)[C@H](C)O1 [DOX, doxorubicin, reference compound]
survival of tumor bearing mice given DOX [1]: dramatically increased

CC(=O)Oc1c(C)c(C)c2c(c1C)CC[C@@](C)(CCC[C@H](C)CCC[C@H](C)CCCC(C)C)O2 [alpha-TA, d-alpha-tocopherol acetate, reference compound]
inhibition at 25 µM ([2]; read-out: % Protection, 25 μM, 50 mM EMS): 12% | inhibition at 25 µM ([3]; Rattus norvegicus, Hepatocyte, 25 μM): 14% | Cellular Tocopherol ester [4]: 1.7 nmoles/10^6 cells | Cellular alpha-T [4]: 0.3 nmoles/10^6 cells | Protection from CCl4 ([5]; 100 mg/kg ip (Table 5)): No | Days Survived After CCl4 Treatment ([5]; 100 mg/kg ip, 24 h prior, CCl4 2.2 g/kg): > 7 days | Days Survived After CCl4 Treatment ([5]; 100 mg/kg ip, 24 h prior, CCl4 3.8 g/kg): 2 days | Days Survived After CCl4 Treatment ([5]; 100 mg/kg ip, 24 h prior, CCl4 5.0 g/kg): 2 days | Days Survived After CCl4 Treatment ([5]; 100 mg/kg ip, 24 h prior, CCl4 […]): 3 days | ALT [6, 16]: 6,108 ± 417 Units/L | AST [6, 16]: 20,233 ± 3525 Units/L | Liver Concentration Ester [7]: 92 ± 6 nmol/g | protection against carcinogenic effects of radiation and cancer causing chemicals [8]: ineffective

CC(C)CCC[C@@H](C)[C@H]1CC[C@H]2[C@@H]3CC=C4C[C@@H](OC(=O)CCC(=O)O)CC[C@]4(C)[C@H]3CC[C@]12C [Cholesteryl Succinate]
Cell Death [2]: 48 ± 4% | inhibition at 25 µM ([2]; 5 h, read-out: Percent Cytoprotection): 30 ± 22% | Lipid Peroxidation ([3]; 5 Hrs, concentrations as cell death (Table 15)): 11.3 ± 4.2 nmolMDA/10^6 cells | Days Survived After CCl4 Treatment [5, 17]: > 7 days | Serum AST Levels ([6]; 100 mg/kg ip 20 h prior, 24 hrs after 2 g/kg CCl4 (Table 26)): 1.84 ± 1.13 10^3 units/L | Serum AST Levels ([6]; 100 mg/kg ip 20 h prior, 48 hrs after 2 g/kg CCl4 (Table 26)): 1.90 ± 2.64 10^3 units/L | survival after DOX, normal mice (FIGS. 8a-d) [9]: survived significantly longer | protection against THA hepatotoxicity (FIG. 10) ([10]; THA 15 mg/kg): protects against the hepatotoxicity resulting from THA | protection against THA hepatotoxicity (FIG. 11) ([10]; THA 30 mg/kg): protects against the hepatotoxicity resulting from THA

COC(=O)CCC(=O)Oc1c(C)c(C)c2c(c1C)CCC(C)(CCCC(C)CCCC(C)CCCC(C)C)O2 (stereo not drawn) [methyl ester of alpha-TS, Alpha-Tocopherol Succinate Methyl Ester]
Cell Death [2]: 30 ± 1% | inhibition at 25 µM ([2]; 5 h, read-out: Percent Cytoprotection, 25 μM, 50 mM EMS, 5 h): 22 ± 15% | % Initial Intracellular [K+] [11]: 67 ± 4 % Initial | Days Survived After CCl4 Treatment [5, 17]: > 7 days

O=C(O)CCC(=O)O [Tris Succinate, reference compound]
ALT [6, 18]: 3.617 ± 0.858 10^3 units/L | AST [6, 18]: 11.22 ± 3.15 10^3 units/L | ALT [6, 19]: 2.135 ± .881 10^3 units/L | AST [6, 19]: 8.32 ± 2.65 10^3 units/L | ALT [6, 20]: 0.048 ± 0.005 10^3 units/L | AST [6, 20]: 0.11 ± 0.02 10^3 units/L | ALT [6, 21]: 0.058 ± .001 10^3 units/L | AST [6, 21]: 0.15 ± 5.02 10^3 units/L | Serum ALT Level [12, 22]: 623 ± 339 Units/L | Serum AST Level [12, 22]: 2286 ± 1190 Units/L | Serum ALT Level ([12]; 100 mg/kg ip, no AP (Table 23)): 50 ± 7 Units/L | Serum AST Level ([12]; 100 mg/kg ip, no AP (Table 23)): 93 ± 34 Units/L | growth rate of L1210 cells (FIG. 7) [13]: no effect on the growth rate

COC(=O)CCC(=O)O [methyl ester succinate, methyl ester of succinate]
concentration required to stimulate gluconeogenesis or ATP production [14]: Millimolar concentrations

Cc1c(C)c2c(c(C)c1OC(=O)CCC(=O)O)CC[C@@](C)(CCC[C@H](C)CCC[C@H](C)CCCC(C)C)O2 [alpha-TS tris salt, Alpha tocopheryl succinate tris salt]
ALT [6, 18]: 0.371 ± 0.246 10^3 units/L | AST [6, 18]: 1.86 ± 1.11 10^3 units/L | ALT [6, 23]: 0.52 ± 0.16 10^3 units/L | AST [6, 23]: 0.79 ± 0.26 10^3 units/L | inhibition in vivo at 100 mg/kg ([6]; Rattus norvegicus, 100 mg/kg ip 20 h prior, 48 h after 1 g/kg CCl4, read-out: % Hepatoprotection): 80% | growth rate of L1210 cells (FIG. 7) [13]: significantly suppress the growth rate of L1210 cells | Survival Time [15]: 7.6 ± 0.6 days
